Five compounds from patent US20130158024A1, “TRICYCLIC NECROSTATIN COMPOUNDS” (priority 2005, published 2013) can be followed below.

In data set [1] the test system is FADD-deficient Jurkat T cells treated with TNF-α. The data set is described as follows: Inhibition of necroptosis (CICD) in FADD-deficient Jurkat T cells treated with TNF-α, ATP-based viability. The class given is cell-based, human. The conditions noted are these: for antinecroptotic (anti-CICD) activity, in words: FADD-deficient Jurkat cells, TNFα.
In data set [2] the test system is BALB/c 3T3 cells. The data set is described as follows: CICD of BALB/c 3T3 cells induced by TNFα/zVAD.fmk. It counts as cell-based, mouse.
Data set [3] relates to Primary mouse CD4+ and CD8+ T cells. The data set is described as follows: Activation-induced cell death (AICD) of primary CD4+ and CD8+ T cells. The class given is cell-based. The conditions noted are these: re-activated CD4+ cells. The protocol: Cell viability was assessed using Sytox Green (Molecular Probes) (CD8) or propidium iodide exclusion (CD4) assays in FIG. 17A or ATP assay in FIG. 17B. Numbers represent the percentages of live cells normalized to the corresponding compound treated controls lacking αCD3.

Data set [4] concerns primary cortical neurons. The data set is described as follows: Oxygen-glucose deprivation (OGD) induced death of primary cortical neurons, MAP2 cytoblot. The class given is cell-based. The conditions noted are these: OGD 90 minutes, 24 hours recovery; 30 μM. The procedure:
Cells were allowed to recover in the presence of the compounds (except for the CNQX/MK801) for 24 hours, and specific neuronal viability was determined using MAP2 cytoblot. Values represent the percentages of live cells normalized to the compound treated cells, which were maintained in glucose-containing, non-deoxygenated media. **—P<0.02. […] Cells were allowed to recover in the presence of the compounds for 24 hours, and specific neuronal viability was determined using MAP2 cytoblot. Values represent the percentages of live cells normalized to the compound treated cells, which were maintained in glucose-containing, non-deoxygenated media. **—P<0.04.

Data set [5] deals with T1, RIP1 (Homo sapiens, UniProt Q13546).
T1 construct: RIP has been immunoprecipitated (IP) from lysates of WT and RIP-deficient Jurkat cells using agarose-conjugated anti-RIP antibody; endogenous in cells; host or cells: Jurkat (wild type)
The data set is described as follows: In vitro kinase assay: autophosphorylation of immunoprecipitated RIP1. The class given is biochemical. The conditions noted are these: radioactive ATP, 30 min at 30° C., autoradiography.

The subject of data set [6] is CD8+ cells. The data set is described as follows: Activation and proliferation of CD8+ cytotoxic T lymphocytes (CTL) suppressed by zVAD.fmk. The class given is cell-based, mouse. The conditions noted are these: 100 μM zVAD.fmk, 30 μM compound. The procedure: Numbers of cells were determined using FACS analyses. Cell numbers are normalized to the number of cells in unstimulated control, which was set as 100%. […] Cells were stained with αCD8^+-FITC antibody (Pharmingen) and CD8^+ cell numbers were determined by FACS. Cell numbers are normalized to the number of cells in unstimulated control, which was set as 100%. Percentages of dead cells (line) was determined by co-staining cells with propidium iodide.
Values represent fold increase over unstimulated control.
Cells were stained with αCD8^+-FITC antibody (Pharmingen), and CD8^+ cell numbers were determined by FACS. Cell numbers are normalized to the number of cells in unstimulated control, which was set as 100%. Percentages of dead cells (line) were determined by co-staining cells with propidium iodide.

Data set [7] concerns FADD deficient Jurkat cells. Particulars: compound in the absence of TNFα.
The subject of data set [8] is U-937 cells. The data set is described as follows: Necrosis of low density U-937 cells induced by zVAD-fmk and DMSO, ATP levels. The conditions noted are these: U-937 1×10^5 cells/ml, 72 hours. It counts as cell-based, human. The procedure:
Methods for the identification of chemical compounds that decrease cell necrosis induced, for example, by zVAD-fmk/DMSO at a low cell density (e.g., 1×10^5 cells/ml) are achieved essentially as described above, except, the inducer of necrosis is zVAD-fmk/DMSO, rather than zVAD-fmk/TNFα.
Exposure of low density U-937 cells (1×10^5 cells/ml) to zVAD-fmk (100 μM) and DMSO (0.5%) for 72 hours results in cell death by necrosis. The compounds identified to decrease cell necrosis triggered by zVAD-fmk and TNFα, compounds 115807, 115681, 210227, and 215686 from the ChemBridge chemical library, were also evaluated for their ability to decrease cell necrosis induced by zVAD-fmk and DMSO. The cells (1×10^5 cells/ml) were first exposed to zVAD-fmk, and then thirty minutes later to the above-identified small molecules that decrease necrosis. After an additional 30 minutes, the cells were exposed to DMSO. 72 hours after exposure to the compounds, cellular ATP levels were measured, as described above.

Data set [9] relates to U937 cells. The data set is described as follows: Necrosis of U937 cells induced by TNFα and zVAD.fmk (primary and secondary screen), ATP assay. The class given is cell-based, human. Particulars: U937, 72 hours. The protocol:
We plated U937 cells in 384-well plates at 5,000-10,000 cells per well in 40-μl phenol red-free RPMI 1640 medium containing 100 μM zVAD.fmk and 40 ng ml^−1 human TNFα using a Multidrop dispenser (Thermo Electron). We added 100 nl of the DiverSetE (5 mg ml^−1 in DMSO, Chembridge) using a Seiko-based custom-built pin transfer robot (Institute of Chemistry and Cell Biology, Harvard Medical School). After 72 hours, we assessed cell viability using a luminescence-based ATP assay (ATPLite-M, PerkinElmer). We also dispensed cells not treated with TNFα in each plate as a positive control. We purchased Nec-1 and other preliminary positive hits from Chembridge for individual retesting.
Using a known paradigm of death receptor mediated caspase-independent cell death in human U937 cells, we established a high-throughput screen in 384 well format for small molecule inhibitors of caspase-independent cell death (CICD). In this system, U937 cells were induced to undergo CICD in the presence of TNFα and zVAD.fmk, and the rate of cell death was determined by an ATP-Lite-M assay, a commercial luminescence-based assay measuring cellular ATP levels (Packard). U937 cells were chosen because these cells can be induced to undergo CICD very efficiently upon TNFα/zVAD treatment in the absence of additional, stress-inducing sensitizing stimuli, such as CHX, making this system perfectly suited for reliable identification of CICD inhibitors. Furthermore, rapid suspension growth kinetics of U937 cells results in the availability of large quantities of cells, which translates into robust signals ideal for high throughput screening. ATP-Lite-M assay was chosen because among all the different assay systems tested, it gives the most consistent and robust signal, which is also critical for high throughput screening. Exposure of U937 cells to TNFα alone led to partial cell death, whereas co-treatment with TNFα and caspase inhibitor zVAD.fmk produced significant increase in the amount of cell death and ATP loss consistent with the published observations. In addition, in the presence of zVAD.fmk, the morphology of cell loss changed from apoptosis with cell shrinkage, nuclear fragmentation, membrane blebbing to necrosis, characterized by cell swelling, increase in cytosolic density, and early loss of plasma membrane integrity. Other cell death assays, such as an MTT assay (mitochondrial metabolism) and Sytox assay (permeability of the plasma membrane), were used as alternative means to validate the screen, and consistently produced results similar to those obtained using ATP-Lite-M assay, which confirmed that the ATP-Lite-M assay can be used to accurately measure the extent of CICD.
In a primary screen, U-937 cells (5×10^5 or 7.5×10^5 cells/ml) were first exposed to zVAD-fmk (100 μM). Thirty minutes later the same cells were exposed to a chemical compound from the library (5 mg/ml, dissolved in 0.1-0.5 μl of DMSO, giving a final DMSO concentration of 0.3% to 1.5%). After an additional thirty minutes, TNFα (40 ng/ml) was added to the cell culture medium. The cells were then incubated at 37 C for 72 hours, and were then assayed for cellular ATP levels. […] Compounds which maintained cellular ATP levels were compounds which blocked necrosis triggered by zVAD-fmk and TNFα.
In a secondary screen, the compounds identified from the first screen, above, to decrease necrosis induced by zVAD-fmk and TNFα were assayed for their potency. Serial dilution of each chemical compound was performed and the compounds were administered to U-937 cells, as per the primary screen. The concentrations of each compound were 70 μM, 23 μM, 8 μM, and 2.5 μM. The level of necrosis occurring in response to zVAD-fmk, TNFα, and the various concentrations of chemical compounds was assayed as described above for the primary screen.

Data set [10] concerns Jurkat T cells. The data set is described as follows: Necrosis (CICD) of Jurkat T cells induced by Fas ligand, cycloheximide and zVAD, ATP assay. It counts as cell-based, human. The conditions noted are these: FasL/CHX/zVAD. The protocol:
Jurkat cells were treated with 5 ng/ml of FasL without (A) or with cyclohexamide (CHX) (B) to induce apoptosis, or 5 ng/ml FasL, 1 μg/ml of CHX and 100 μM of zVAD.fmk to induce CICD (B). […] Cell viability was determined after 24 hours of incubation with indicated reagents using CellTiter-Glo ATP assay. The values represent viability relative to the control Jurkat cells without the treatment of FasL, which was set as 100% viability.
FIG. 34A is a graph showing the results of treating Jurkat T cells with Fas ligand (5 ng/ml), cyclohexamide (1 μg/ml) and zVAD (100 μM) in the presence of the indicated amounts of anti-necrotic compounds (4) and (5). Viability was determined 36 hours later using an ATP assay. The viability values are relative to the samples lacking Fas ligand, which were used as 100% viability controls. FIG. 34B is a graph as in FIG. 34A, in which the anti-necrotic compounds are (19) and (20).
Compounds were also tested in another necrosis assay utilizing human Jurkat T cells, Fas ligand to induce cell death, and zVAD to inhibit the apoptosis pathway. After 36 hours, cell viability was measure by the commercial CellTiter ATP cell viability assay (Promega).

In data set [11] the test system is L929 cells. The data set is described as follows: TNFα-induced CICD of L929 cells, ATP assay. The conditions noted are these: no caspase inhibitor. It counts as cell-based, mouse. The protocol:
Cell viability was determined using ATP-Lite-M ATP assay (Packard). The values represent viability relative to the control lacking TNFα, which was set as 100% viability.
Cell viability in this and subsequent panels was determined by ATP-based viability assay. Numbers represent percentages of the live cells normalized to those in the untreated control wells. Throughout, error bars represent standard deviations. […] Numbers represent viability normalized to that of the corresponding compound-treated cells in the absence of FasL. […] Numbers represent viability normalized to that of the corresponding compound-treated cells in the absence of dimerizer. […] Cells were treated with TNFα (E, F, H), zVAD.fmk (E, F), or CHX (F) for 16 (F) or 24 (E, H) hours. Numbers represent viability normalized to that of the compound-treated cells in the absence of TNFα.

Entries after “also recorded” stand apart in the source; their conditions may differ. Where a SMILES comes first, the peptide text is derived from it. The star is where a group is joined. Cbz = O=C(OCc1ccccc1)*; CH2F = FC*

The EC50 is the midpoint of the concentration-response curve.

T1 sequence (Q13546 whole entry): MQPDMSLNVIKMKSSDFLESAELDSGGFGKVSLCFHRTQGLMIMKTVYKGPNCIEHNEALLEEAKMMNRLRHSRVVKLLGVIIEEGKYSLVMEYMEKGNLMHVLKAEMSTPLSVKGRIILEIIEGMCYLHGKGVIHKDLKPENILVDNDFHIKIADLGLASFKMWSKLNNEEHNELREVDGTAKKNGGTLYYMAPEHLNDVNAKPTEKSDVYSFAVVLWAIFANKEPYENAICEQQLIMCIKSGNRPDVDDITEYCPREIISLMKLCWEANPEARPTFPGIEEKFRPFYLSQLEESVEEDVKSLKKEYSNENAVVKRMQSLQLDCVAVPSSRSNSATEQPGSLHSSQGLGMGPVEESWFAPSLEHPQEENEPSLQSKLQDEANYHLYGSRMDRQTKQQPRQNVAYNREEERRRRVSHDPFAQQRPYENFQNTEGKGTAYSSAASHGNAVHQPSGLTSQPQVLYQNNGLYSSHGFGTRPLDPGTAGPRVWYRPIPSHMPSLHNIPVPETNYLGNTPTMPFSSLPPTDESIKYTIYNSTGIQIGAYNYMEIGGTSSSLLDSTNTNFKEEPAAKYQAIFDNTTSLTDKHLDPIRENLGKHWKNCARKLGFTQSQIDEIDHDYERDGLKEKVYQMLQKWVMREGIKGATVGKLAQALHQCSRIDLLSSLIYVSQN

For the compound `Cn1cnc(N)c2ncnc1-2` [Compound 3MA, 3-methyladenine, reference compound], in [1], the “antinecroptotic (anti-CICD) activity, in words” value is given as “necroptosis proceeded normally in the presence of 3-methyladenine (3MA)”. In data set [2], the “inhibition of CICD in 3T3 cells, in words” value is “necroptosis proceeded normally in the presence of 3-methyladenine (3MA)”.
For `COC(=O)C[C@H](NC(=O)[C@H](C)NC(=O)[C@@H](NC(=O)OCc1ccccc1)C(C)C)C(=O)CF` [zVAD.fmk, N-benzyloxycarbonyl-Val-Ala-Asp-(OMe) fluoromethyl ketone, reference compound] (Cbz-Val-Ala-Asp(OMe)-CH2F), the “effect on AICD, compound alone, in words” value in [3] is on record as “only partially protective”. In data set [4], the “protection from OGD-induced neuronal death, in words” value is “did not detect any protection by zVAD.fmk”.
Regarding `O=C1NC(=S)NC1Cc1c[nH]c2ccccc12` (stereo not shown) [Nec-1i], the “inhibition of RIP1 autophosphorylation, in words” value in [5] is “showed significantly reduced activity in inhibiting RIP1 autophosphorylation”. Moreover, the “protection from OGD-induced neuronal death, in words” value in [4] is reported as “failed to rescue neuronal cell death”. For the same compound, the “restoration of CTL activation/proliferation suppressed by zVAD.fmk, in words” value in data set [6] was “does not affect T cell proliferation; also recorded: failed to restore T cell proliferation”. In addition, the “antinecroptotic (anti-CICD) activity, in words” value in data set [1] is given as “does not inhibit CICD in vitro; also recorded: completely abolished antinecroptotic activity”.
Consider `COc1ccc2c(c1)C1=NN(C(C)=O)C(c3ccc(F)cc3)C1CC2` (stereo not shown) [Nec-3], for which the LD50 in data set [7] came out at 143 µM. In addition, the “decrease of necrosis induced by zVAD-fmk/DMSO, in words” value in data set [8] is on record as “also decreased necrosis induced by zVAD-fmk/DMSO”. For the same compound, in data set [1] (Homo sapiens, Jurkat, concentration required to rescue 50% of cell death, TNFα for 36 hours, ATP assay, read-out: EC50), the EC50 was determined as 0.97 µM. Further, the “inhibition of necrosis induced by TNFα/zVAD.fmk, in words” value in [9] (listed as 140) is “identified as an inhibitor of necrosis”; in [9] (listed as 210227) it was “identified to decrease necrosis in response to exposure of the cell to zVAD-fmk and TNFα”.
On to `CCCNC(=O)[C@H]1O[C@@H]1C(=O)N[C@H](C(=O)N1CCC[C@H]1C(=O)OC)[C@@H](C)CC` [Ca-074-Me, reference compound], for which the “inhibition of CICD/necrosis of Jurkat cells, in words” value in [10] was “inhibits CICD in Jurkat and 3T3 cells”. For the same compound, the “protection of L929 cells from TNFα-induced CICD, in words” value in data set [11] is given as “neither these compounds nor geldanamycin work in L929 cells”. Moreover, in [2], the “inhibition of CICD in 3T3 cells, in words” value is “inhibits CICD in Jurkat and 3T3 cells”.
